Results published in publication PMC12334608 (Nature Communications, 2025).

Target: T1, ACOX-1.1(R343A) (Caenorhabditis elegans, UniProt O62140, R343A)
T1 sequence (O62140 1-674 R343A): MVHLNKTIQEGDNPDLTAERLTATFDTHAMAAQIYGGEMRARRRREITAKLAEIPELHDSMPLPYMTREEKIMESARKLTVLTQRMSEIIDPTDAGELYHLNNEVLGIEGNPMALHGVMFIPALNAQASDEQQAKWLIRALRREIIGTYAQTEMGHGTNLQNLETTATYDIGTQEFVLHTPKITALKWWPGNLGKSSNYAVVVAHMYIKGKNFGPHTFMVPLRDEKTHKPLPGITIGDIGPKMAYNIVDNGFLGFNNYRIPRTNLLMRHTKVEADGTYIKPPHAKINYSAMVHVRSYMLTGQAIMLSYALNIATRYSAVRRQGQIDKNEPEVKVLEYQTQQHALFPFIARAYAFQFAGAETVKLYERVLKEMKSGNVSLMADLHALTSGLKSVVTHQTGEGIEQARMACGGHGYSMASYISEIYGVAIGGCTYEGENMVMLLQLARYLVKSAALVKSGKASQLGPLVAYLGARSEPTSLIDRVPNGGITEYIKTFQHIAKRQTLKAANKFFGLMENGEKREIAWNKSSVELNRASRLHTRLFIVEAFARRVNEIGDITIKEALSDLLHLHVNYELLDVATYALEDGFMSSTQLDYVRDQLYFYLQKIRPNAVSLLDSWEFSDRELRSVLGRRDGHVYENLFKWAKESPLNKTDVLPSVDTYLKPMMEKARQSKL
Assay: Enzyme-coupled kinetic assay, ACOX-1.1
Format: biochemical, C. elegans
Details: varying ATP

SMILES: Nc1ncnc2c1ncn2[C@@H]1O[C@H](COP(=O)(O)OP(=O)(O)OP(=O)(O)O)[C@@H](O)[C@H]1O [ATP]
- influence of ATP on the activity of the enzyme: no influence on the activity of the enzyme
